The results in this text go back to PMC8129498, “Synthesis, Antitumor and Antiviral In Vitro Activities of New Benzotriazole-Dicarboxamide Derivatives” (Frontiers in Chemistry, 2021).

pEC50: −log10 of the molar value.

One data set concerns Poliovirus type-1 (Sb-1). Kind of data set: microbe, parasite or virus in culture. It is filed as cell-based. The note with it: Enterovirus C, Vero 76, read-out: EC50, plaque reduction Sb-1.
The nature of data set [1]: Cytotoxicity in Vero-76 cell-line (MTT). The note with it: monkey (Cercopithecus aethiops), Vero-76 cells (mock-infected), mock-infected Vero-76 cells. The class given is cell-based. As for the experimental part: Vero-76 cells were seeded in 96-well plates at an initial density of 5 × 10^5 cells/ml, in Dulbecco’s Modified Eagle Medium (D-MEM) with L-glutamine and 25 mg/L kanamycin, supplemented with 10% FBS. Cell cultures were then incubated at 37°C in a humidified and 5% CO2 atmosphere, in the absence or presence of serial dilutions of test compounds. The test medium used for the cytotoxic assay as well as for antiviral assay contained 1% of the appropriate serum. Cell viability was determined after 48–96 h at 37°C by MTT method for Vero-76 ([Pauwels et al., 1988]).
The extent of cell growth/viability and viral multiplication, at each drug concentration tested, were expressed as percentage of untreated controls. Concentrations resulting in 50% inhibition (CC50 or EC50) were determined by linear regression analysis.

Data set [2] deals with Coxsackievirus B5 (CV-B5). Briefly: Plaque reduction assay, CV-B5 in Vero-76 monolayers. The note with it: Enterovirus B. The class given is cell-based.

What is called melting point is the temperature of the solid-liquid transition. Take `O=C(O)CCC(=O)Nc1ccc(Cn2nnc3ccccc32)cc1`: the melting point is 193 to 195 °C. Same read-out and setting: as for `O=C(O)CCCC(=O)Nc1ccc(Cn2nnc3ccccc32)cc1`, the figure is 152 to 154 °C; as for `O=C(O)CCCCC(=O)Nc1ccc(Cn2nnc3ccccc32)cc1`, 134 to 136 °C; as for `O=C(O)c1ccc(C(=O)Nc2ccc(Cn3nnc4ccccc43)cc2)cc1`, more than 300 °C.

Compound `O=C(O)c1cccc(C(=O)Nc2ccc(Cn3nnc4ccccc43)cc2)n1` returned a melting point of 230 to 232 °C. Consider `O=C(O)c1ccc(C(=O)Nc2ccc(Cn3nnc4ccccc43)cc2)s1`, for which the melting point was more than 300 °C. Take `Cc1cc2nnn(Cc3ccc(NC(=O)CCC(=O)O)cc3)c2cc1C`: the melting point was 218 to 220 °C. Turning to `Cc1cc2nnn(Cc3ccc(NC(=O)CCCC(=O)O)cc3)c2cc1C`, the melting point was 270 to 272 °C. On the same count and under the same terms, then `Cc1cc2nnn(Cc3ccc(NC(=O)CCCCC(=O)O)cc3)c2cc1C`, with 203 to 204 °C. Turning to `Cc1cc2nnn(Cc3ccc(NC(=O)/C=C/C(=O)O)cc3)c2cc1C`, the melting point lay in the range of 256 to 258 °C.

`Cc1cc2nnn(Cc3ccc(NC(=O)c4ccc(C(=O)O)cc4)cc3)c2cc1C` registered a melting point of more than 300 °C.

The compound `Cc1cc2nnn(Cc3ccc(NC(=O)c4cccc(C(=O)O)n4)cc3)c2cc1C` had a melting point of 214 to 216 °C. On the same count and under the same terms, then `Cc1cc2nnn(Cc3ccc(NC(=O)c4ccc(C(=O)O)s4)cc3)c2cc1C`, with more than 300 °C; and `O=C(O)CCC(=O)Nc1ccc(Cn2nnc3cc(Cl)c(Cl)cc32)cc1`, with 214 to 216 °C; and `O=C(O)CCCC(=O)Nc1ccc(Cn2nnc3cc(Cl)c(Cl)cc32)cc1`, with 173 to 175 °C.

Consider `O=C(O)CCCCC(=O)Nc1ccc(Cn2nnc3cc(Cl)c(Cl)cc32)cc1`, for which the melting point was 228 to 230 °C. Still for that read-out and setting: as for `O=C(O)c1cccc(C(=O)Nc2ccc(Cn3nnc4cc(Cl)c(Cl)cc43)cc2)n1`, the figure is 175 to 177 °C; as for `O=C(CCC(=O)Nc1ccc(-n2nnc3cc(Cl)c(Cl)cc32)cc1)Nc1ccc(-n2nnc3cc(Cl)c(Cl)cc32)cc1`, 264 to 265 °C; as for `O=C(CCCCC(=O)Nc1ccc(-n2nnc3cc(Cl)c(Cl)cc32)cc1)Nc1ccc(-n2nnc3cc(Cl)c(Cl)cc32)cc1`, 293 to 294 °C. For `O=C(Nc1ccc(-n2nnc3cc(Cl)c(Cl)cc32)cc1)c1ccc(C(=O)Nc2ccc(-n3nnc4cc(Cl)c(Cl)cc43)cc2)cc1`, the melting point lay in the range of 197 to 199 °C.

Take `O=C(Nc1ccc(-n2nnc3cc(Cl)c(Cl)cc32)cc1)c1cccc(C(=O)Nc2ccc(-n3nnc4cc(Cl)c(Cl)cc43)cc2)n1`: the melting point was more than 300 °C.

In turn, `O=C(O)c1cccc(C(=O)Nc2ccc(-n3nnc4cc(Cl)c(Cl)cc43)cc2)n1` came in with a melting point of 240 °C. In the case of `O=C(Nc1ccc(-n2nc3cc(Cl)c(Cl)cc3n2)cc1)c1ccc(C(=O)Nc2ccc(-n3nc4cc(Cl)c(Cl)cc4n3)cc2)cc1`, the melting point is more than 300 °C.

In turn, `O=C(Nc1ccc(-n2nc3cc(Cl)c(Cl)cc3n2)cc1)c1cccc(C(=O)Nc2ccc(-n3nc4cc(Cl)c(Cl)cc4n3)cc2)n1` had a melting point of more than 300 °C.

For the compound `O=C(Nc1ccc(-n2nc3cc(Cl)c(Cl)cc3n2)cc1)c1ccc(C(=O)Nc2ccc(-n3nc4cc(Cl)c(Cl)cc4n3)cc2)s1`, the melting point is more than 300 °C.

As for `O=C(O)c1cccc(C(=O)Nc2ccc(-n3nc4cc(Cl)c(Cl)cc4n3)cc2)n1`, the melting point was 240 °C. In turn, `O=C(CCC(=O)Nc1ccc(Cn2nnc3ccccc32)cc1)Nc1ccc(Cn2nnc3ccccc32)cc1` registered a melting point of 255 to 257 °C. The same measure, in the same setting: as for `O=C(CCCC(=O)Nc1ccc(Cn2nnc3ccccc32)cc1)Nc1ccc(Cn2nnc3ccccc32)cc1`, the figure is 237 to 238 °C; as for `O=C(CCCCC(=O)Nc1ccc(Cn2nnc3ccccc32)cc1)Nc1ccc(Cn2nnc3ccccc32)cc1`, 231 to 232 °C; as for `O=C(Nc1ccc(Cn2nnc3ccccc32)cc1)c1ccc(C(=O)Nc2ccc(Cn3nnc4ccccc43)cc2)cc1`, more than 300 °C.

Turning to `O=C(Nc1ccc(Cn2nnc3ccccc32)cc1)c1cccc(C(=O)Nc2ccc(Cn3nnc4ccccc43)cc2)n1`, the melting point lay within 111 to 112 °C.

With `O=C(Nc1ccc(Cn2nnc3ccccc32)cc1)c1ccc(C(=O)Nc2ccc(Cn3nnc4ccccc43)cc2)s1`, the melting point is more than 300 °C.

In turn, `Cc1cc2nnn(Cc3ccc(NC(=O)CCC(=O)Nc4ccc(Cn5nnc6cc(C)c(C)cc65)cc4)cc3)c2cc1C` returned a melting point of 270 to 272 °C. On to `Cc1cc2nnn(Cc3ccc(NC(=O)CCCC(=O)Nc4ccc(Cn5nnc6cc(C)c(C)cc65)cc4)cc3)c2cc1C`, for which the melting point was 253 to 255 °C.

In turn, `Cc1cc2nnn(Cc3ccc(NC(=O)CCCCC(=O)Nc4ccc(Cn5nnc6cc(C)c(C)cc65)cc4)cc3)c2cc1C` showed a melting point of 283 to 285 °C. Still for that read-out and setting: as for `Cc1cc2nnn(Cc3ccc(NC(=O)/C=C/C(=O)Nc4ccc(Cn5nnc6cc(C)c(C)cc65)cc4)cc3)c2cc1C`, the figure is 117 to 119 °C; as for `Cc1cc2nnn(Cc3ccc(NC(=O)c4cccc(C(=O)Nc5ccc(Cn6nnc7cc(C)c(C)cc76)cc5)n4)cc3)c2cc1C`, 186 to 188 °C; as for `Cc1cc2nnn(Cc3ccc(NC(=O)c4ccc(C(=O)Nc5ccc(Cn6nnc7cc(C)c(C)cc76)cc5)s4)cc3)c2cc1C`, 225 to 227 °C. The same measure, in the same setting: as for `O=C(CCCCC(=O)Nc1ccc(Cn2nnc3cc(Cl)c(Cl)cc32)cc1)Nc1ccc(Cn2nnc3cc(Cl)c(Cl)cc32)cc1`, the figure is more than 300 °C. In turn, `O=C(/C=C/C(=O)Nc1ccc(Cn2nnc3cc(Cl)c(Cl)cc32)cc1)Nc1ccc(Cn2nnc3cc(Cl)c(Cl)cc32)cc1` gave a melting point of more than 300 °C. Take `O=C(Nc1ccc(Cn2nnc3cc(Cl)c(Cl)cc32)cc1)c1cccc(C(=O)Nc2ccc(Cn3nnc4cc(Cl)c(Cl)cc43)cc2)n1`: the melting point is more than 300 °C.

In the case of `O=C(Nc1ccc(Cn2nnc3cc(Cl)c(Cl)cc32)cc1)c1ccc(C(=O)Nc2ccc(Cn3nnc4cc(Cl)c(Cl)cc43)cc2)s1`, the melting point was more than 300 °C.

In general, pEC50 refers to the EC50 on a negative log10 scale, so that one unit is a factor of ten. What is called CC50 is the concentration that lowers cell viability or growth by half. Consider `C#C[C@@]1(O)[C@H](O)[C@@H](CO)O[C@H]1n1ccc(N)nc1=O` [Compound 2ec, 2′-C-ethynyl-cytidine, reference compound], for which the pEC50 with Poliovirus type-1 (Sb-1) was 4.64. This compound gave a CC50 in data set [1] of more than 100 µM. In turn, `O=C(O)CCC(=O)Nc1ccc(-n2nnc3cc(Cl)c(Cl)cc32)cc1` [Compound 4a, 4-((4-(5,6-Dichloro-1H-Benzo[d][1,2,3]Triazol-1-yl)phenyl)amino)-4-oxobutanoic Acid] yielded a melting point of 163 to 164 °C. Also, the pEC50 with Poliovirus type-1 (Sb-1) is less than 4.05. Moreover, it took 90 µM to reach half-maximal cytotoxicity in data set [1] (CC50). This compound had a pEC50 in data set [2] of 4.89. For `O=C(O)CCCC(=O)Nc1ccc(-n2nnc3cc(Cl)c(Cl)cc32)cc1` [Compound 4b, 5-((4-(5,6-Dichloro-1H-Benzo[d][1,2,3]Triazol-1-yl)phenyl)amino)-5-oxopentanoic Acid], in that order: 106 to 108 °C, 4.36, more than 100 µM and 4.35.

The compound `O=C(O)CCCCC(=O)Nc1ccc(-n2nnc3cc(Cl)c(Cl)cc32)cc1` [Compound 4c, 6-((4-(5,6-Dichloro-1H-Benzo[d][1,2,3]Triazol-1-yl)phenyl)amino)-6-oxohexanoic Acid] returned a melting point of 148 to 150 °C. For the same compound, in the data set on Poliovirus type-1 (Sb-1), the pEC50 is less than 4.43. In data set [1], this compound returned a CC50 of 37 µM. For the same compound, the pEC50 in data set [2] was 5.05.

Consider `O=C(CCC(=O)Nc1ccc(Cn2nnc3cc(Cl)c(Cl)cc32)cc1)Nc1ccc(Cn2nnc3cc(Cl)c(Cl)cc32)cc1` [Compound 9a, N ^1,N ^4-Bis(4-((5,6-Dichloro-1H-Benzo[d][1,2,3]Triazol-1-yl)methyl)phenyl)Succinamide], for which the melting point is more than 300 °C. In the data set on Poliovirus type-1 (Sb-1), the pEC50 was 4.37. Moreover, in data set [1], the CC50 is more than 100 µM. In data set [2], this compound showed a pEC50 of 4.64. `Cc1cc(CCCOc2c(C)cc(-c3noc(C(F)(F)F)n3)cc2C)on1` [P, Pleconaril, reference compound] returned a CC50 in data set [1] of more than 100 µM. In data set [2], the pEC50 was 8.30.
